Measured values published in PubChem BioAssay AID256 (DTP/NCI, 2004).
Where “and” joins values, the source holds several entries; their conditions need not be identical. Equal entries are not always repeated. Inconclusive results and toxic doses are left out.

Test system: CD2F1 mice, L1210 leukemia ip, survival T/C
Test: NCI In Vivo Anticancer Drug Screen. Data for tumor model L1210 Leukemia (intraperitoneal) in CD2F1 (CDF1) mice
Conditions: higher = longer survival
Outline: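 Read-out first: treated-group measurement over vehicle-control measurement, expressed as a ratio. Animals bore a transplanted tumor line and were dosed with compound or vehicle.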

Compound: O=C(O)C(O)C(O)C1[O][Sb][O]C1CO (stereo not given)
- T/C (endpoint: mean survival time, dose: 50.0 mg/kg/injection, schedule: Q01DX001 (ip), vehicle: saline): 97 % of control
- T/C (endpoint: mean survival time, dose: 50.0 mg/kg/injection, schedule: Q01DX009 (ip), vehicle: saline): 95 % of control
- T/C (endpoint: mean survival time, dose: 50.0 mg/kg/injection, schedule: Q04DX003 (ip), vehicle: saline): 91 % of control
- T/C (endpoint: mean survival time, dose: 100.0 mg/kg/injection, schedule: Q01DX001 (ip), vehicle: saline): 93 % of control
- T/C (endpoint: mean survival time, dose: 100.0 mg/kg/injection, schedule: Q01DX009 (ip), vehicle: saline): 96 % of control
- T/C (endpoint: mean survival time, dose: 100.0 mg/kg/injection, schedule: Q04DX003 (ip), vehicle: saline): 92 % of control
- T/C (endpoint: mean survival time, dose: 200.0 mg/kg/injection, schedule: Q01DX001 (ip), vehicle: saline): 98 % of control
- T/C (endpoint: mean survival time, dose: 200.0 mg/kg/injection, schedule: Q01DX009 (ip), vehicle: saline): 96 % of control
- T/C (endpoint: mean survival time, dose: 200.0 mg/kg/injection, schedule: Q04DX003 (ip), vehicle: saline): 92 % of control

Compound: O=C(/C=C1/OCCN1C(=O)Nc1ccccc1)Nc1ccccc1
- T/C (endpoint: mean survival time, dose: 100.0 mg/kg/injection, schedule: Q04DX003 (ip), vehicle: saline with Tween-80): 107 % of control
- T/C (endpoint: mean survival time, dose: 200.0 mg/kg/injection, schedule: Q04DX003 (ip), vehicle: saline with Tween-80): 103 % of control
- T/C (endpoint: mean survival time, dose: 400.0 mg/kg/injection, schedule: Q04DX003 (ip), vehicle: saline with Tween-80): 97 % of control

Compound: CCCNC(=O)OCC#CC#CCOC(=O)NCCC
- T/C (endpoint: mean survival time, dose: 100.0 mg/kg/injection, schedule: Q04DX003 (ip), vehicle: Klucel (hydroxypropylcellulose) (HPC)): 94 % of control
- T/C (endpoint: mean survival time, dose: 200.0 mg/kg/injection, schedule: Q04DX003 (ip), vehicle: Klucel (hydroxypropylcellulose) (HPC)): 98 % of control
- T/C (endpoint: mean survival time, dose: 400.0 mg/kg/injection, schedule: Q04DX003 (ip), vehicle: Klucel (hydroxypropylcellulose) (HPC)): 96 % of control

Compound: CCOC(=O)C1=C(C)N(Cc2ccccc2)C(C)=C(C(=O)OCC)C1(C)C
- T/C (endpoint: mean survival time, dose: 100.0 mg/kg/injection, schedule: Q01DX009 (ip), vehicle: saline with Tween-80): 107 % of control
- T/C (endpoint: mean survival time, dose: 200.0 mg/kg/injection, schedule: Q01DX009 (ip), vehicle: saline with Tween-80): 109 % of control
- T/C (endpoint: mean survival time, dose: 400.0 mg/kg/injection, schedule: Q01DX009 (ip), vehicle: saline with Tween-80): 107 % of control

Compound: COc1nc(Cl)nc(Cl)c1Cl (tested in a mixture with another compound)
- T/C (endpoint: mean survival time, dose: 12.5 mg/kg/injection, schedule: Q01DX009 (ip), vehicle: other): 93 % of control
- T/C (endpoint: mean survival time, dose: 25.0 mg/kg/injection, schedule: Q01DX009 (ip), vehicle: other): 93 % of control
- T/C (endpoint: mean survival time, dose: 50.0 mg/kg/injection, schedule: Q01DX009 (ip), vehicle: other): 104 % of control

Compound: CCc1ccc(C2=C(O)C(=O)C(c3ccccc3)=C(O)C2=O)cc1
- T/C (endpoint: mean survival time, dose: 3.12 mg/kg/injection, schedule: Q01DX009 (ip), vehicle: Klucel (hydroxypropylcellulose) (HPC)): 97 % of control
- T/C (endpoint: mean survival time, dose: 6.25 mg/kg/injection, schedule: Q01DX009 (ip), vehicle: Klucel (hydroxypropylcellulose) (HPC)): 100 % of control
- T/C (endpoint: mean survival time, dose: 12.5 mg/kg/injection, schedule: Q01DX009 (ip), vehicle: Klucel (hydroxypropylcellulose) (HPC)): 100 % of control
- T/C (endpoint: mean survival time, dose: 25.0 mg/kg/injection, schedule: Q01DX009 (ip), vehicle: Klucel (hydroxypropylcellulose) (HPC)): 97 % of control
- T/C (endpoint: mean survival time, dose: 50.0 mg/kg/injection, schedule: Q01DX009 (ip), vehicle: Klucel (hydroxypropylcellulose) (HPC)): 100 % of control
- T/C (endpoint: mean survival time, dose: 100.0 mg/kg/injection, schedule: Q01DX009 (ip), vehicle: Klucel (hydroxypropylcellulose) (HPC)): 95 % of control

Compound: Cc1ccc(C(C)NC2=NCCO2)c(C)c1 (stereo not given)
- T/C (endpoint: mean survival time, dose: 25.0 mg/kg/injection, schedule: Q04DX002 (ip), vehicle: saline with Tween-80): 91 % of control
- T/C (endpoint: mean survival time, dose: 50.0 mg/kg/injection, schedule: Q04DX002 (ip), vehicle: saline with Tween-80): 95 % of control

Compound: CCOC(=O)CC(=O)C(F)(F)F.CCOC(=O)CC(=O)C(F)(F)F.[Ni]
- T/C (endpoint: mean survival time, dose: 150.0 mg/kg/injection, schedule: Q01DX001 (ip), vehicle: saline): 115 % of control

Compound: COC(=O)CC1(C(=O)OC)Nc2ccccc2C(=O)O1 (stereo not given)
- T/C (endpoint: mean survival time, dose: 100.0 mg/kg/injection, schedule: Q01DX001 (ip), vehicle: saline with Tween-80): 94 % of control
- T/C (endpoint: mean survival time, dose: 200.0 mg/kg/injection, schedule: Q01DX001 (ip), vehicle: saline with Tween-80): 96 % of control
- T/C (endpoint: mean survival time, dose: 400.0 mg/kg/injection, schedule: Q01DX001 (ip), vehicle: saline with Tween-80): 96 % of control

Compound: Nc1ccc(NC(=O)Nc2ccc(N)cc2)cc1
- T/C (endpoint: mean survival time, dose: 3.0 mg/kg/injection, schedule: Q01DX009 (ip), vehicle: saline sonified): 96 % of control
- T/C (endpoint: mean survival time, dose: 6.0 mg/kg/injection, schedule: Q01DX009 (ip), vehicle: saline sonified): 94 % of control
- T/C (endpoint: mean survival time, dose: 12.0 mg/kg/injection, schedule: Q01DX009 (ip), vehicle: saline sonified): 96 % of control
- T/C (endpoint: mean survival time, dose: 12.5 mg/kg/injection, schedule: Q04DX003 (ip), vehicle: saline with Tween-80): 104 % of control

Compound: COC1C(N)C(OC2C(Oc3cccc4c(O)c5c(=O)oc6ccc(C)c7c(=O)oc(c34)c5c67)OC(C)C(O)C2(C)O)OC(C)C1O (stereo not given)
- T/C (endpoint: median survival time, dose: 1.25 mg/kg/injection, schedule: Q01DX005 (ip), vehicle: other): 151 % of control
- T/C (endpoint: median survival time, dose: 3.0 mg/kg/injection, schedule: Q01DX005 (ip), vehicle: other): 177 % of control
- T/C (endpoint: median survival time, dose: 5.0 mg/kg/injection, schedule: Q01DX005 (ip), vehicle: other): 164 % of control and 177 % of control
